Assay results as given in patent publication US10851102B2, “Imidazole and triazole containing bicyclic compounds as JAK inhibitors” (THERAVANCE BIOPHARMA R&D IP, LLC, priority 2019, dated 2020).

Key:
JAK1 = JAK1 (Homo sapiens (Human), UniProt P23458); test: Biochemical JAK and Tyk2 kinase assays (LanthaScreen): JAK1; details: 1 h pre-incubation, ATP at Km; pIC50 converted to pKi by Cheng-Prusoff
Outline: (§1)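 LanthaScreen format using GST-tagged JAK enzymes, 1 h compound preincubation and 1 h ATP-initiated reaction at ambient temperature, in pH 7.5 HEPES buffer with 1% DMSO. Values are Cheng-Prusoff pKi.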

JAK2 = JAK2 (Homo sapiens (Human), UniProt O60674); test: Biochemical JAK and Tyk2 kinase assays (LanthaScreen): JAK2; details: 1 h pre-incubation, ATP at Km; pIC50 converted to pKi by Cheng-Prusoff
Method: (§2) Assay 1: Biochemical JAK and Tyk2 Kinase Assays
(§3) A panel of four LanthaScreen JAK biochemical assays (JAK1, 2, 3 and Tyk2) were carried in a common kinase reaction buffer (50 mM HEPES, pH 7.5, 0.01% Brij-35, 10 mM MgCl2, and 1 mM EGTA). Recombinant GST-tagged JAK enzymes and a GFP-tagged STAT1 peptide substrate were obtained from Life Technologies.
(§4) Serially or discretely diluted compounds were pre-incubated with each of the four JAK enzymes and the substrate in white 384-well microplates (Corning) at ambient temperature for 1 h. ATP was subsequently added to initiate the kinase reactions in 10 μL total volume, with 1% DMSO. […] Kinase reactions were allowed to proceed for 1 hour at ambient temperature before a 10 μL preparation of EDTA (10 mM final concentration) and Tb-anti-pSTAT1 (pTyr701) antibody (Life Technologies, 2 nM final concentration) in TR-FRET dilution buffer (Life Technologies) was added. The plates were allowed to incubate at ambient temperature for 1 h before being read on the EnVision reader (Perkin Elmer). Emission ratio signals (520 nm/495 nm) were recorded and utilized to calculate the percent inhibition values based on DMSO and background controls.
(§5) For dose-response analysis, percent inhibition data were plotted vs. compound concentrations, and IC50 values were determined from a 4-parameter robust fit model with the Prism software (GraphPad Software). Results were expressed as pIC50 (negative logarithm of IC50) and subsequently converted to pKi (negative logarithm of dissociation constant, Ki) using the Cheng-Prusoff equation.

JAK3 = JAK3 (Homo sapiens (Human), UniProt P52333); test: Biochemical JAK and Tyk2 kinase assays (LanthaScreen): JAK3; details: for JAK 3 (pKi) / Ki: 1 h pre-incubation, ATP at Km, pIC50 converted to pKi by Cheng-Prusoff; for JAK3 (pKi)-JAK1 (pKi): difference of pKi values, selectivity JAK3 over JAK1; for Ki: read-out: JAK 3 (pKi) (converted)
Outline: as §1

Tyk2 = Tyk2 (Homo sapiens (Human), UniProt P29597); test: Biochemical JAK and Tyk2 kinase assays (LanthaScreen): Tyk2; details: 1 h pre-incubation, ATP at Km; pIC50 converted to pKi by Cheng-Prusoff
Method: as §2, §3, §4, §5

[1] = system: IL-2 stimulated pSTAT5 in Tall-1 T cells (JAK3); test: Cellular JAK3 potency assay: inhibition of IL-2 stimulated pSTAT5 in Tall-1 T cells; format: cell-based; details: IL-2 300 ng/ml, pSTAT5 AlphaLisa, Tall-1 human T cell line; read-out: Tall-1 (pIC50) (converted)
Outline: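 Human Tall-1 T cells (45,000/well) preincubated with compound 1 h at 37 °C, then stimulated with IL-2 (final 300 ng/ml) for 30 min. Lysates read for pSTAT5 (Tyr694/699) by AlphaLISA luminescence. IC50 from signal-versus-concentration curves, reported as pIC50 (mean±SD).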

[2] = system: IL-2 stimulated pSTAT5 in CD4+ T cells isolated from murine splenocytes (JAK3); test: Inhibition of IL-2 stimulated pSTAT5 in CD4+ T cells isolated from murine splenocytes; format: cell-based; details: Mus musculus, IL-2 7 ng/ml, read-out: pIC50, inhibition of IL-2 stimulated pSTAT5 (converted)
Method: Assay 3: Inhibition of IL-2 Stimulated pSTAT5 in CD4+ T Cells Isolated from Murine Splenocytes
The potency of test compounds for inhibition of interleukin-2 (IL-2) stimulated STATS phosphorylation was measured in the CD4+ T cells isolated from murine splenocytes using AlphaLisa. Because IL-2 signals through JAK3, this assay provides a measure of JAK3 cellular potency in mouse.
Phosphorylated STATS was measured via the AlphaLISA SureFire Ultra pSTAT5 (Tyr694/699) kit (PerkinElmer).
CD4+ T cells were isolated from murine splenocytes via negative selection on a magnetic column (Miltnyi Biotec) and re-suspended in assay media (phenol red-free DMEM (Life Technologies) supplemented with 10% FBS (ATCC)). Cells were seeded at 50,000 cells/well in assay media (2 μL/well). Compounds were serially diluted in DMSO and diluted to 2× final concentration in assay media. Compound was added (4 μl/well) and the cells incubated at 37° C., 5% CO2 for 1 hour, followed by the addition of IL-2 (R&D Systems; final concentration 7 ng/ml) in pre-warmed assay media (2 μL) for 30 minutes. After cytokine stimulation, cells were lysed with 2 μl of 5× AlphaLisa Lysis Buffer (PerkinElmer). The lysate was shaken at 900 rpm for 10 minutes at room temperature (RT). Phosphorylated STATS was measured via the pSTAT5 AlphaLisa kit (PerkinElmer). Freshly prepared acceptor bead mixture was dispensed onto lysate (5 ul) under green filtered <100 lux light. Plates were shaken at 900 rpm for 2 mins, briefly spun down, and incubated for 2 hrs at RT in the dark. Donor beads were dispensed (5 μl) under green filtered <100 lux light. Plates were shaken at 900 rpm for 2 mins, briefly spun down, and incubated overnight at RT in the dark. Luminescence was measured with excitation at 689 nm and emission at 570 nm using an EnVision plate reader (PerkinElmer) under green filtered <100 lux light.
To determine the inhibitory potency of test compounds in response to IL-2, the average emission intensity of beads bound to pSTATS was measured in primary CD4+ T cells isolated from murine splenocytes. IC50 values were determined from analysis of the inhibition curves of signal intensity vs compound concentration. Data are expressed as pIC50 (negative decadic logarithm IC50) values (mean±standard deviation).

Caco-2 cell monolayers = test: Caco-2 permeation assay; format: in vitro ADME, human; details: for Caco Kp 10^−6 cm/sec: 5 μM, A to B, + Verapamil 25 μM, 120 minutes
Excerpt: Assay 5: Caco-2 Permeation Assay

[3] = Colon and plasma mouse pharmacokinetics; format: in vivo; details: ratio of colon AUC to plasma AUC; male Balb/c mice, 10 mg/kg PO
Method: Assay 6: Colon and Plasma Mouse Pharmacokinetics
6 male Balb/c mice were administered 10 mg/kg of compound in 1% HPMC+0.1% Tween-80 by PO administration. At 0.5, 2 and 6 hours after dose administration, animals were anesthetized, and terminal blood samples were collected by cardiac puncture, followed by collection of colon contents and colon tissue.
Blood samples were collected into K2EDTA and stored on wet ice until processed to plasma by centrifugation (12,000 rpm at 4° C.). Plasma samples were transferred to cluster tubes and placed on dry ice prior to freezer storage. The colon contents from each animal were collected at each terminal blood collection time point. The colon tissues were flushed with saline and patted dry. The colon and colon content tissues were homogenized using sterile water containing 0.1% formic acid 9:1 (water:tissue, v/w). The homogenized tissues and colon contents were transferred to cluster tubes and placed on dry ice prior to freezer storage. All samples were analyzed using LC/MS/MS against analytical standards.
The composite pharmacokinetic parameters of the compounds were determined by non-compartmental analysis using Phoenix WinNonlin Version 6 (Certara, St. Louis, Mo.) and using mean values from 2 animals/time point. For plasma concentrations below the quantification limit (BQL), the lowest concentration measurable or the BLOQ (below limit of quantification) was used.
A colon to plasma ratio was determined as the ratio of the colon AUC to the plasma AUC.

JAK1, sequence (P23458 whole entry): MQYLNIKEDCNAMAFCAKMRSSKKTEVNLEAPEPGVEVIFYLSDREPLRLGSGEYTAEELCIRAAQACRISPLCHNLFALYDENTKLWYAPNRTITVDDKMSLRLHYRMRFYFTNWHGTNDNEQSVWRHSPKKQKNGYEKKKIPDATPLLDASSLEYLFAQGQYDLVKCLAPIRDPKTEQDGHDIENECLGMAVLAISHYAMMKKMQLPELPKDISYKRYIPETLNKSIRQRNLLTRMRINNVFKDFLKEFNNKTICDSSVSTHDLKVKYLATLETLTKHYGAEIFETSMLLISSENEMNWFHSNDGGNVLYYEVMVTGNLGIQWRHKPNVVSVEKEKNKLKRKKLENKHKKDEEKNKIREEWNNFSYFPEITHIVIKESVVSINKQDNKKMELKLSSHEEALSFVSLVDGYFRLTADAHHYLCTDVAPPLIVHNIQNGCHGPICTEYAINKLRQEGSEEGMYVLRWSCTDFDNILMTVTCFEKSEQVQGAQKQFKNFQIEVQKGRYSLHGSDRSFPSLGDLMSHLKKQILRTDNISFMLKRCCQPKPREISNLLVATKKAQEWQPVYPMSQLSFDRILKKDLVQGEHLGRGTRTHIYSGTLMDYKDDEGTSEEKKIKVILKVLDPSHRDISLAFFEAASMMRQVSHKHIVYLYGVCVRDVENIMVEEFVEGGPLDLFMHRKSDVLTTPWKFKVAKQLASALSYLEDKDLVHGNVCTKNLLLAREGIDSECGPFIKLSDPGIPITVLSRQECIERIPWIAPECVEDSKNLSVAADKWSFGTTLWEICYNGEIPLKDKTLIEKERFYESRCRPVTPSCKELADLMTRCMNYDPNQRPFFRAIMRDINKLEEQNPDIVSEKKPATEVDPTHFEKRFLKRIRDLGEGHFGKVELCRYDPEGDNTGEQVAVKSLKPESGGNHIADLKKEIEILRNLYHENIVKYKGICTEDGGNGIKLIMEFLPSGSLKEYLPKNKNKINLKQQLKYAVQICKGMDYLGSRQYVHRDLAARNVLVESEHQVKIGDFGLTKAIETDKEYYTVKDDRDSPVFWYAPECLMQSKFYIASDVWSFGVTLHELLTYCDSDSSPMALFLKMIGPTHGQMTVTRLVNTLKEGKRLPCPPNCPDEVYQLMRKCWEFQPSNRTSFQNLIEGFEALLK
JAK3, sequence (P52333 whole entry): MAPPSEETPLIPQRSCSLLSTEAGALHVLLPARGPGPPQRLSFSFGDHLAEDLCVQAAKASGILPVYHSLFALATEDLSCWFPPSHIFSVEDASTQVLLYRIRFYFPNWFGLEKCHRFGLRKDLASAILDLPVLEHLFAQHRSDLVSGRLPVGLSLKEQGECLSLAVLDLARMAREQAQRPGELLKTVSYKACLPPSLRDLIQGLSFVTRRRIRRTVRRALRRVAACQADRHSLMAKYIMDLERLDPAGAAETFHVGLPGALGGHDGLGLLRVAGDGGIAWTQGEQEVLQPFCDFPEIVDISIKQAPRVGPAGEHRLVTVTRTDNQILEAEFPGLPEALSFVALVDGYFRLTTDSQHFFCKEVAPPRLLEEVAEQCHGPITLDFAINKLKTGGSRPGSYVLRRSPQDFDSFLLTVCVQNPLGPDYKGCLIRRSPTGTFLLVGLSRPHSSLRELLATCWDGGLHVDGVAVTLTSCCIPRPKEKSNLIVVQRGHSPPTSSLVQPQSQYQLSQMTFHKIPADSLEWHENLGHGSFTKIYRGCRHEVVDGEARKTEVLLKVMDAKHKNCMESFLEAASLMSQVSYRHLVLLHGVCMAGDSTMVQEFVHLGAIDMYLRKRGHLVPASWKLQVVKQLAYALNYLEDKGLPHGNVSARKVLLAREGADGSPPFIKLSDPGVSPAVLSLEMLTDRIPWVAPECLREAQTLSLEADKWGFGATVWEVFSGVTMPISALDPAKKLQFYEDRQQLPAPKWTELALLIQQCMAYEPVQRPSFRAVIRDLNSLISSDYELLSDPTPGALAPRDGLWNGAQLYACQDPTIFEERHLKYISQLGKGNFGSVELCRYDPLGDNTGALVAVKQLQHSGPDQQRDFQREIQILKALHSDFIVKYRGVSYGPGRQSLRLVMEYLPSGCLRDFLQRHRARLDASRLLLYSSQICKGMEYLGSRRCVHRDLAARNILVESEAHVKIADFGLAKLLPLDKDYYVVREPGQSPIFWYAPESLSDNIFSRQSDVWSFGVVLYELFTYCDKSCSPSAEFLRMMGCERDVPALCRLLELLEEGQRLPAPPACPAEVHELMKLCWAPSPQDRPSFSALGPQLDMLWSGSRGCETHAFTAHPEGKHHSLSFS
JAK2, sequence (O60674 whole entry): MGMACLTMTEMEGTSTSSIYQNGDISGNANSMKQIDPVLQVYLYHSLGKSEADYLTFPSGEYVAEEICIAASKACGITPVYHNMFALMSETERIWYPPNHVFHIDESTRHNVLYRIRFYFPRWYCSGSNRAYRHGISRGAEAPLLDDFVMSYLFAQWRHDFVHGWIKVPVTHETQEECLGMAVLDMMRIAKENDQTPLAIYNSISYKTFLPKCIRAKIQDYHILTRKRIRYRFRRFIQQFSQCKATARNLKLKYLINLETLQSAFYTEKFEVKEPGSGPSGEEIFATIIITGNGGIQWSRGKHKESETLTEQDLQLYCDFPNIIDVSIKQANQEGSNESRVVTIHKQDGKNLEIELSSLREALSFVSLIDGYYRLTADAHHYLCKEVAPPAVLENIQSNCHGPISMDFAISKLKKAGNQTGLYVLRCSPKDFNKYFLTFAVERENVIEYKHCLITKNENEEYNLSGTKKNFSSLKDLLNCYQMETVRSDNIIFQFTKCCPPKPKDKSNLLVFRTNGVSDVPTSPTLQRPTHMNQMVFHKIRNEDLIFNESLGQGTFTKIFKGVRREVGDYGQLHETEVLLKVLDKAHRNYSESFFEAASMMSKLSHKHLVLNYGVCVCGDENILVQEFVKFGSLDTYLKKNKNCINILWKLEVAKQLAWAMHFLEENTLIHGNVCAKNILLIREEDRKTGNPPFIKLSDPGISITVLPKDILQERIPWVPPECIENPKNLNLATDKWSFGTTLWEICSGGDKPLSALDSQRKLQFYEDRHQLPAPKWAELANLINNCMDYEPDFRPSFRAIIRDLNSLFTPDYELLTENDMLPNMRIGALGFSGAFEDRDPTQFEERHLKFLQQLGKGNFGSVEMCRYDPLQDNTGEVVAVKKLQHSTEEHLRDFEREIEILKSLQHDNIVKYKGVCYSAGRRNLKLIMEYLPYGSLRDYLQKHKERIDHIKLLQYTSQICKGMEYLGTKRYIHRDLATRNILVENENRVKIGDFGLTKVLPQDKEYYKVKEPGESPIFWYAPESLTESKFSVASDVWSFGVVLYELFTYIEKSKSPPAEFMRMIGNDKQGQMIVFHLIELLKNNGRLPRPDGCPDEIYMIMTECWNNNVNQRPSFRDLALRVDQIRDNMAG
Tyk2, sequence (P29597 whole entry): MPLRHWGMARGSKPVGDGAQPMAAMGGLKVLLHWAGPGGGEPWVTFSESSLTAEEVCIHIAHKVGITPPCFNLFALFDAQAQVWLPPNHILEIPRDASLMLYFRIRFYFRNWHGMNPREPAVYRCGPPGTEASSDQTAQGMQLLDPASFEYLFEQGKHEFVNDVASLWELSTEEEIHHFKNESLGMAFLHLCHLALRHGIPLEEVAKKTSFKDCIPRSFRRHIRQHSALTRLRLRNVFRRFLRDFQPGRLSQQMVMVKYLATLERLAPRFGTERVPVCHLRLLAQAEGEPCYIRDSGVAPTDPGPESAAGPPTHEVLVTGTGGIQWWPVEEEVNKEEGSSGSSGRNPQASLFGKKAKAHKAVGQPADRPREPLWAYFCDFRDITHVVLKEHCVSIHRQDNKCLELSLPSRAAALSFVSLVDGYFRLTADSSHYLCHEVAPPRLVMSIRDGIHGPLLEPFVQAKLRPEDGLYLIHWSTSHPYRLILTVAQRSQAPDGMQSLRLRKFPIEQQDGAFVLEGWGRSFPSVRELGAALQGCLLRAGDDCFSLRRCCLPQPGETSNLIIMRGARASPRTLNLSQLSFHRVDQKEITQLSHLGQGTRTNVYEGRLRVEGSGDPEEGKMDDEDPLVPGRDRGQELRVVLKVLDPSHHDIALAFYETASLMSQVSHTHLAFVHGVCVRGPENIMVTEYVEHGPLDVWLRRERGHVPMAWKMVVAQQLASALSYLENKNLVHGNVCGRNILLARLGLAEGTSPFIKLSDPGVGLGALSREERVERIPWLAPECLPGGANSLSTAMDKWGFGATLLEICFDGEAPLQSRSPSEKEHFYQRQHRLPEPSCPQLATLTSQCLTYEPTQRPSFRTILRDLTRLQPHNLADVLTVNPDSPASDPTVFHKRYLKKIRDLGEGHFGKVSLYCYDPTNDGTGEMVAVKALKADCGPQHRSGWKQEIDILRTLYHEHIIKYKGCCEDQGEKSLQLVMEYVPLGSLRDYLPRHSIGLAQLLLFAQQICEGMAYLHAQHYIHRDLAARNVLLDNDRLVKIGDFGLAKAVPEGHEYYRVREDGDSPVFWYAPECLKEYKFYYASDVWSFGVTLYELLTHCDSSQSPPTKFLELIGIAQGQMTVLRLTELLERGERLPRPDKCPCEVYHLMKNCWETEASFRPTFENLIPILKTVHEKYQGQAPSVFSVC

Row | Compound | JAK 1 (pKi) (JAK1) | JAK 2 (pKi) (JAK2) | JAK 3 (pKi) (JAK3) | JAK3 (pKi)-JAK1 (pKi) (JAK3) | Tyk 2 (pKi) (Tyk2) | IC50 [1] [nM] | IC50 [2] [nM] | Caco Kp 10^−6 cm/sec (Caco-2 cell monolayers) | Ki (JAK3) [nM] | Kp value (Caco-2 cell monolayers; A to B + Verapamil, unit not given, thresholds in same block in 10^−6 cm/sec) | colon to plasma ratio [3]
1 | C=CC(=O)N1CC(COc2cc(-c3ccc(O)c(F)c3F)cn3cncc23)C1 [Example 8, 1-(3-(((6-(2,3-difluoro-4-hydroxyphenyl)imidazo[1,5-a]pyridin-8-yl)oxy)methyl)azetidin-1-yl)prop-2-en-1-one] | E (E represents a pKi value of 7 or below (Ki of 100 nM or above)) | E (E represents a pKi value of 7 or below (Ki of 100 nM or above)) | A (A represents a pKi value≥10 (Ki≤0.1 nM)) | A (A represents a value of 3 or above) | E (E represents a pKi value of 7 or below (Ki of 100 nM or above)) | 31.6 to 200 | < 1000 | B (B represents a value between 5×10^−6 and 10×10^−6 cm/sec) | – | – | –
2 | C=CC(=O)N1CC(COc2cc(-c3cc(Cl)c(O)c(OC)c3)cn3cncc23)C1 [Example 9, 1-(3-(((6-(3-chloro-4-hydroxy-5-methoxyphenyl)imidazo[1,5-a]pyridin-8-yl)oxy)methyl)azetidin-1-yl)prop-2-en-1-one] | E (E represents a pKi value of 7 or below (Ki of 100 nM or above)) | E (E represents a pKi value of 7 or below (Ki of 100 nM or above)) | – | A (A represents a value of 3 or above) | E (E represents a pKi value of 7 or below (Ki of 100 nM or above)) | 31.6 to 200 | < 1000 | A (A represents a value below 5×10^−6 cm/sec) | 0.1 to 1 | – | –
3 | C=CC(=O)N1CC(COc2cc(-c3ccc(O)cc3)cn3cncc23)C1 [Example 11, 1-(3-(((6-(4-hydroxyphenyl)imidazo[1,5-a]pyridin-8-yl)oxy)methyl)azetidin-1-yl)prop-2-en-1-one] | E (E represents a pKi value of 7 or below (Ki of 100 nM or above)) | E (E represents a pKi value of 7 or below (Ki of 100 nM or above)) | – | A (A represents a value of 3 or above) | E (E represents a pKi value of 7 or below (Ki of 100 nM or above)) | 31.6 to 200 | < 1000 | A (A represents a value below 5×10^−6 cm/sec) | 0.1 to 1 | – | –
4 | C=CC(=O)N1CC(COc2cc(-c3ccc(O)c(F)c3)cn3cncc23)C1 [Example 20] | E (E represents a pKi value of 7 or below (Ki of 100 nM or above)) | E (E represents a pKi value of 7 or below (Ki of 100 nM or above)) | – | A (A represents a value of 3 or above) | E (E represents a pKi value of 7 or below (Ki of 100 nM or above)) | 31.6 to 200 | < 1000 | A (A represents a value below 5×10^−6 cm/sec) | 0.1 to 1 | – | –
5 | C=CC(=O)N1CC(C(C)(C)Oc2cc(-c3ccc(O)cc3)cn3cncc23)C1 [Example 28] | E (E represents a pKi value of 7 or below (Ki of 100 nM or above)) | E (E represents a pKi value of 7 or below (Ki of 100 nM or above)) | A (A represents a pKi value≥10 (Ki≤0.1 nM)) | A (A represents a value of 3 or above) | E (E represents a pKi value of 7 or below (Ki of 100 nM or above)) | 31.6 to 200 | < 1000 | A (A represents a value below 5×10^−6 cm/sec) | – | – | –
6 | C=CC(=O)N1CC(COc2cc(-c3cc(F)c(O)c(Cl)c3)cn3cncc23)C1 [Example 31] | E (E represents a pKi value of 7 or below (Ki of 100 nM or above)) | E (E represents a pKi value of 7 or below (Ki of 100 nM or above)) | A (A represents a pKi value≥10 (Ki≤0.1 nM)) | A (A represents a value of 3 or above) | E (E represents a pKi value of 7 or below (Ki of 100 nM or above)) | 31.6 to 200 | < 1000 | A (A represents a value below 5×10^−6 cm/sec) | – | – | –
7 | C=CC(=O)N1CC(COc2cc(-c3ccc(O)c(C)c3)cn3cncc23)C1 [Example 34] | E (E represents a pKi value of 7 or below (Ki of 100 nM or above)) | E (E represents a pKi value of 7 or below (Ki of 100 nM or above)) | – | A (A represents a value of 3 or above) | E (E represents a pKi value of 7 or below (Ki of 100 nM or above)) | 31.6 to 200 | < 1000 | B (B represents a value between 5×10^−6 and 10×10^−6 cm/sec) | 0.1 to 1 | – | –
8 | C=CC(=O)N1C[C@H](Nc2ncnc3[nH]ccc23)CC[C@@H]1C [PF-06651600, 2-propen-1-one, 1-[(2S,5R)-2-methyl-5-(7H-pyrrolo[2,3-d]pyrimidin-4-ylamino)-1-piperidinyl], reference compound] | – | – | – | – | – | – | – | – | – | 25 | 2.8
